{
  "source": "paper PMC11645267",
  "about": "“Novel pharmacologic inhibition of lysine-specific demethylase 1 as a potential therapeutic for glioblastoma” (Cancer Gene Therapy, 2024)",
  "key": {"GSC and LN229 cells": {"system": "GSC and LN229 cells", "assay": "PARP cleavage (apoptosis) by western blot", "format": "cell-based", "conditions": "GSC1228, GSC222, GSC316, LN229; 5 μM", "source_text": "Super-enhancers consist of enhancer clusters with abundant binding of transcription factors and are highly enriched with H3K27ac marks. The H3K4me2 increased regions included the MYC locus and H3K4me2 de novo regions comprised Nestin and SOX2 loci (Fig. 2F, Supplementary Fig. S5A). These regions were also identified as super-enhancers in GSCs using data from our previous study (Fig. 2F). Compared to the large increase in H3K4me2 in these regions, changes in H3K4me3 were subtle after S2172 treatment (only 2582 regions were acquired modification) (Fig. 2C). Increasing the me2/me3 ratio at H3K4 is associated with reduced gene expression.\nA mRNA expression of stem cell marker genes following 96 h treatment of GSC1228 with S2172 (5 μM). The y-axis indicates the expression change relative to DMSO-treated cells. Error bar indicates the SD. *P < 0.05. B Left panel, western blot analysis of MYC, Nestin, and SOX2 after treatment of GSC1228 with either DMSO or S2172 (5 μM) for 96 h. β-actin (ACTB) was used as the loading control. Right panel, Quantification of band signal intensities from the western blot. […] The ratio was calculated by dividing the cleaved-PARP band intensity by the full length-PARP band intensity. […]\n[…] Quantification of signal intensity of western blot (right panel). […] Ratio was calculated by dividing cleaved band intensity by total protein band intensity. […]"}, "LSD2": {"target": "T1, LSD2 (Homo sapiens, UniProt Q8NB78)", "T1 sequence (Q8NB78 1-822)": "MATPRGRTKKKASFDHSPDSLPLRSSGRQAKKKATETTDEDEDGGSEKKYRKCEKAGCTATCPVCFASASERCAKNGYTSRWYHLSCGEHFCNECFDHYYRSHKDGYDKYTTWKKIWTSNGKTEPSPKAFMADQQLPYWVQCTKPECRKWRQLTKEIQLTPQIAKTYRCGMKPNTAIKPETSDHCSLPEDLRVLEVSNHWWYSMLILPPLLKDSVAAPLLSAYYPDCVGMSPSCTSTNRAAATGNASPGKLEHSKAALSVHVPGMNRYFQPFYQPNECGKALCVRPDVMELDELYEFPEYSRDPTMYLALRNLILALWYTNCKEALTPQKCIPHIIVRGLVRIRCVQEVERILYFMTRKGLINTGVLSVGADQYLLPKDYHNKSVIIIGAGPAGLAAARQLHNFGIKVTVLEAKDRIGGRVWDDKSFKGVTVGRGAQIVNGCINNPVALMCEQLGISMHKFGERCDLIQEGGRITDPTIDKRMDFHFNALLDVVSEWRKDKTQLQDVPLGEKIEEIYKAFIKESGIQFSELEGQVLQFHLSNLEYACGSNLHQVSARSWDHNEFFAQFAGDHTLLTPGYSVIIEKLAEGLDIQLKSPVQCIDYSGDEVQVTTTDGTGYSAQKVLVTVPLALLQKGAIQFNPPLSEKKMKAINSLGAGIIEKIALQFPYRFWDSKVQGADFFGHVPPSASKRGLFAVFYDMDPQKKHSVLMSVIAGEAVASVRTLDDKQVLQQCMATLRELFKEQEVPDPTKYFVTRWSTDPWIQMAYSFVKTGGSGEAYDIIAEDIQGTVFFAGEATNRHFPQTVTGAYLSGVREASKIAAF", "assay": "Enzyme inhibition assay (in vitro peroxidase assay) against LSD2", "protocol": "Enzyme inhibition assays against LSD1, LSD2, MAO-A, and MAO-B were performed as previously described [25]. Technical replicates, n = 3."}},
  "data": [
    {"smiles": "NC1CCC(NC2CC2c2cc(F)cc(F)c2OCc2ccccc2)CC1", "note": "(stereo not drawn) [S2172]", "values": [
      {"measurement": "apoptosis, increased cleaved PARP", "setting": "GSC and LN229 cells", "value": "induced apoptosis"},
      {"measurement": "Ki", "setting": "LSD2", "value": "> 250", "unit": "µM"},
      {"measurement": "Inhibition of LSD2 (in words)", "setting": "LSD2; in vitro peroxidase assay", "value": "not inhibited"}
    ]}
  ]
}
